Experimental data as given in patent US20260022142A1, “MACROCYCLIC IMMUNOMODULATORS” (Bristol-Myers Squibb Company, priority 2022, published 2026).
Bridge positions count the residues as written; N and C are the ends. Square brackets hold non-standard residues; d marks the D form. Peptide text beside a SMILES is read from it. * marks the point of attachment. ξ: configuration not given here. Bip = N[C@@H](Cc1ccc(-c2ccccc2)cc1)C(=O)O; Ala(2-furyl) = N[C@@H](Cc1ccco1)C(=O)O; Phe(3-Me) = Cc1cccc(C[C@H](N)C(=O)O)c1; Ala(4-THP) = N[C@@H](CC1CCOCC1)C(=O)O; Val(3-OH) = CC(C)(O)[C@H](N)C(=O)O; hhPhe = N[C@@H](CCCc1ccccc1)C(=O)O; Abu(4-CN) = N#CCC[C@H](N)C(=O)O; Cha = N[C@@H](CC1CCCCC1)C(=O)O; Cit = NC(=O)NCCC[C@H](N)C(=O)O; Thr(3ξ) = CC(O)[C@H](N)C(=O)O; Ala(CN) = N#CC[C@H](N)C(=O)O; dDab = NCC[C@@H](N)C(=O)O; Carboxymethyl = O=C(O)C*; Orn = NCCC[C@H](N)C(=O)O; Aun = NCCCCCCCCCCC(=O)O; Dab = NCC[C@H](N)C(=O)O

Target: T1, PD-1/PD-L1 interaction (PE-labeled human PD-L1-Ig binding to Jurkat cell line over-expressing human PD-1) (Homo sapiens, UniProt Q15116)
T1 construct: expressed in transfected cells; host or cells: Jurkat
Experiment: Jurkat-PD-1 Cell Binding High-Content Screening Assay (CBA)
Format: cell-based
Settings: Jurkat cell line over-expressing human PD-1; PE-labeled PD-L1-Ig 20 nM final; read-out: Jurkat hPD1-PDL1 IC50
Method in brief: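 Binding of fluorescent PD-L1-Ig (20 nM final) to Jurkat-PD-1 cells was measured by automated imaging after 1 h, following a 2 h compound pre-treatment at 37° C.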

T1 sequence (Q15116 25-288): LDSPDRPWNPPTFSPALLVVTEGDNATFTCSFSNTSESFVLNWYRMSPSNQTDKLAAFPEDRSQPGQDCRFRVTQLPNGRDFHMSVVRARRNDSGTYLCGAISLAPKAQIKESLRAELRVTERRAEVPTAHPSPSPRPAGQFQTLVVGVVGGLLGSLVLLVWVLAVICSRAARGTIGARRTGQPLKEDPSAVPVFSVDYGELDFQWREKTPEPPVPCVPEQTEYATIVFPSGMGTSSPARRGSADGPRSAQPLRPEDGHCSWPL

SMILES | IC50 [nM]
CC(C)C[C@H]1NC(=O)[C@H](CCCN)NC(=O)[C@H](Cc2ccc(O)cc2)NC(=O)[C@H](Cc2ccc(-c3ccccc3)cc2)NC(=O)[C@H](C(C)C)NC(=O)[C@H](Cc2c[nH]c3ccccc23)NC(=O)[C@H](CC(=O)O)NC(=O)[C@H](Cc2ccc(OCC(=O)O)cc2)NC(=O)[C@H](CCCNC(=N)N)NC(=O)CSC[C@@H](C(=O)N[C@@H](CCN)C(=O)NCCCCCCCCCCC(=O)O)NC(=O)[C@H](C(C)O)NC(=O)[C@H](C(C)C)NC(=O)[C@H](CC2CCCCC2)NC(=O)[C@H](CCN)NC1=O (stereo partly drawn) [Compound 3413] ({CH2CO}-RY(Carboxymethyl)DWV[Bip]Y[Orn][dL][Dab][Cha]V[Thr(3ξ)]C[Dab][Aun]-OH; thioether N-14) | 33.3
CC(C)C[C@H]1NC(=O)[C@H](CCCN)NC(=O)[C@H](Cc2ccc(O)cc2)NC(=O)[C@H](Cc2ccc(-c3ccccc3)cc2)NC(=O)[C@H](C(C)C)NC(=O)[C@H](Cc2c[nH]c3ccccc23)NC(=O)[C@H](CC(=O)O)NC(=O)[C@H](Cc2ccc(OCC(=O)O)cc2)NC(=O)[C@H](C(C)(C)O)NC(=O)CSC[C@@H](C(=O)N[C@@H](CCN)C(=O)NCCCCCCCCCCC(=O)O)NC(=O)[C@H](C(C)O)NC(=O)[C@H](C(C)C)NC(=O)[C@H](CC2CCCCC2)NC(=O)[C@H](CCN)NC1=O (stereo partly drawn) [Compound 3414] ({CH2CO}-[Val(3-OH)]Y(Carboxymethyl)DWV[Bip]Y[Orn][dL][Dab][Cha]V[Thr(3ξ)]C[Dab][Aun]-OH; thioether N-14) | 73.7
CC(C)C[C@H]1NC(=O)[C@H](CCCN)NC(=O)[C@H](Cc2ccc(O)cc2)NC(=O)[C@H](Cc2ccc(-c3ccccc3)cc2)NC(=O)[C@H](C(C)C)NC(=O)[C@H](Cc2c[nH]c3ccccc23)NC(=O)[C@H](CC(=O)O)NC(=O)[C@H](Cc2ccc(OCC(=O)O)cc2)NC(=O)[C@H](CCCNC(=N)N)NC(=O)CSC[C@@H](C(=O)N[C@@H](CCN)C(=O)NCCCCCCCCCCC(=O)O)NC(=O)[C@H](Cc2ccco2)NC(=O)[C@H](C(C)C)NC(=O)[C@H](CC2CCCCC2)NC(=O)[C@H](CCN)NC1=O [Compound 3415] ({CH2CO}-RY(Carboxymethyl)DWV[Bip]Y[Orn][dL][Dab][Cha]V[Ala(2-furyl)]C[Dab][Aun]-OH; thioether N-14) | 73.6
CC(C)C[C@H]1NC(=O)[C@H](CCCN)NC(=O)[C@H](Cc2ccc(O)cc2)NC(=O)[C@H](Cc2ccc(-c3ccccc3)cc2)NC(=O)[C@H](C(C)C)NC(=O)[C@H](Cc2c[nH]c3ccccc23)NC(=O)[C@H](CC(=O)O)NC(=O)[C@H](Cc2ccc(OCC(=O)O)cc2)NC(=O)[C@H](CCCNC(=N)N)NC(=O)CSC[C@@H](C(=O)N[C@@H](CCN)C(=O)NCCCCCCCCCCC(=O)O)NC(=O)[C@H](CCC#N)NC(=O)[C@H](C(C)C)NC(=O)[C@H](CC2CCCCC2)NC(=O)[C@H](CCN)NC1=O [Compound 3418] ({CH2CO}-RY(Carboxymethyl)DWV[Bip]Y[Orn][dL][Dab][Cha]V[Abu(4-CN)]C[Dab][Aun]-OH; thioether N-14) | 36.2
Cc1cccc(C[C@@H]2NC(=O)[C@H](CC(=O)O)NC(=O)[C@H](Cc3ccc(OCC(=O)O)cc3)NC(=O)[C@H](CCCNC(=N)N)NC(=O)CSC[C@@H](C(=O)N[C@@H](CCN)C(=O)NCCCCCCCCCCC(=O)O)NC(=O)[C@H](C(C)O)NC(=O)[C@H](C(C)C)NC(=O)[C@H](CC3CCCCC3)NC(=O)[C@H](CCN)NC(=O)[C@@H](CC(C)C)NC(=O)[C@H](CCCN)NC(=O)[C@H](Cc3ccc(O)cc3)NC(=O)[C@H](Cc3ccc(-c4ccccc4)cc3)NC(=O)[C@H](CCCc3ccccc3)NC2=O)c1 (stereo partly drawn) [Compound 3420] ({CH2CO}-RY(Carboxymethyl)D[Phe(3-Me)][hhPhe][Bip]Y[Orn][dL][Dab][Cha]V[Thr(3ξ)]C[Dab][Aun]-OH; thioether N-14) | 60.9
CC(C)C[C@H]1NC(=O)[C@H](CCCN)NC(=O)[C@H](Cc2ccc(O)cc2)NC(=O)[C@H](Cc2ccc(-c3ccccc3)cc2)NC(=O)[C@H](C(C)C)NC(=O)[C@H](Cc2c[nH]c3ccccc23)NC(=O)[C@H](CC(=O)O)NC(=O)[C@H](Cc2ccc(OCC(=O)O)cc2)NC(=O)[C@H](CC(N)=O)NC(=O)CSC[C@@H](C(=O)N[C@@H](CCN)C(=O)NCCCCCCCCCCC(=O)O)NC(=O)[C@H](C(C)O)NC(=O)[C@H](C(C)C)NC(=O)[C@H](CC2CCCCC2)NC(=O)[C@H](CCN)NC1=O (stereo partly drawn) [Compound 3421] ({CH2CO}-NY(Carboxymethyl)DWV[Bip]Y[Orn][dL][Dab][Cha]V[Thr(3ξ)]C[Dab][Aun]-OH; thioether N-14) | 33.6
CC(C)C[C@H]1NC(=O)[C@H](CCCN)NC(=O)[C@H](Cc2ccc(O)cc2)NC(=O)[C@H](Cc2ccc(-c3ccccc3)cc2)NC(=O)[C@H](C(C)C)NC(=O)[C@H](Cc2c[nH]c3ccccc23)NC(=O)[C@H](CC(=O)O)NC(=O)[C@H](Cc2ccc(OCC(=O)O)cc2)NC(=O)[C@H](C(C)O)NC(=O)CSC[C@@H](C(=O)N[C@H](CCN)C(=O)NCCCCCCCCCCC(=O)O)NC(=O)[C@H](Cc2ccco2)NC(=O)[C@H](C(C)C)NC(=O)[C@H](CC2CCCCC2)NC(=O)[C@H](CCN)NC1=O (stereo partly drawn) [Compound 3422] ({CH2CO}-[Thr(3ξ)]Y(Carboxymethyl)DWV[Bip]Y[Orn][dL][Dab][Cha]V[Ala(2-furyl)]C[dDab][Aun]-OH; thioether N-14) | 78.2
CC(C)C[C@H]1NC(=O)[C@H](CCCN)NC(=O)[C@H](Cc2ccc(O)cc2)NC(=O)[C@H](Cc2ccc(-c3ccccc3)cc2)NC(=O)[C@H](C(C)C)NC(=O)[C@H](Cc2c[nH]c3ccccc23)NC(=O)[C@H](CC(=O)O)NC(=O)[C@H](Cc2ccc(OCC(=O)O)cc2)NC(=O)[C@H](C(C)O)NC(=O)CSC[C@@H](C(=O)N[C@@H](CCN)C(=O)NCCCCCCCCCCC(=O)O)NC(=O)[C@H](CC2CCOCC2)NC(=O)[C@H](C(C)C)NC(=O)[C@H](CC2CCCCC2)NC(=O)[C@H](CCN)NC1=O (stereo partly drawn) [Compound 3424] ({CH2CO}-[Thr(3ξ)]Y(Carboxymethyl)DWV[Bip]Y[Orn][dL][Dab][Cha]V[Ala(4-THP)]C[Dab][Aun]-OH; thioether N-14) | 133
CC(C)C[C@H]1NC(=O)[C@H](CCCN)NC(=O)[C@H](Cc2ccc(O)cc2)NC(=O)[C@H](Cc2ccc(-c3ccccc3)cc2)NC(=O)[C@H](C(C)C)NC(=O)[C@H](Cc2c[nH]c3ccccc23)NC(=O)[C@H](CC(=O)O)NC(=O)[C@H](Cc2ccc(OCC(=O)O)cc2)NC(=O)[C@H](CC(N)=O)NC(=O)CSC[C@@H](C(=O)N[C@@H](CCN)C(=O)NCCCCCCCCCCC(=O)O)NC(=O)[C@H](CC#N)NC(=O)[C@H](C(C)C)NC(=O)[C@H](CC2CCCCC2)NC(=O)[C@H](CCN)NC1=O [Compound 3425] ({CH2CO}-NY(Carboxymethyl)DWV[Bip]Y[Orn][dL][Dab][Cha]V[Ala(CN)]C[Dab][Aun]-OH; thioether N-14) | 54.8
Cc1cccc(C[C@@H]2NC(=O)[C@H](CC(=O)O)NC(=O)[C@H](Cc3ccc(OCC(=O)O)cc3)NC(=O)[C@H](C(C)O)NC(=O)CSC[C@@H](C(=O)N[C@@H](CC(N)=O)C(=O)NCCCCCCCCCCC(=O)O)NC(=O)[C@H](CCCNC(N)=O)NC(=O)[C@H](C(C)C)NC(=O)[C@H](CC3CCCCC3)NC(=O)[C@H](CCN)NC(=O)[C@@H](CC(C)C)NC(=O)[C@H](CCCN)NC(=O)[C@H](Cc3ccc(O)cc3)NC(=O)[C@H](Cc3ccc(-c4ccccc4)cc3)NC(=O)[C@H](C(C)C)NC2=O)c1 (stereo partly drawn) [Compound 3426] ({CH2CO}-[Thr(3ξ)]Y(Carboxymethyl)D[Phe(3-Me)]V[Bip]Y[Orn][dL][Dab][Cha]V[Cit]CN[Aun]-OH; thioether N-14) | 10.7
Cc1cccc(C[C@@H]2NC(=O)[C@H](CC(=O)O)NC(=O)[C@H](Cc3ccc(OCC(=O)O)cc3)NC(=O)[C@H](C(C)O)NC(=O)CSC[C@@H](C(=O)N[C@@H](CC(N)=O)C(=O)NCCCCCCCCCCC(=O)O)NC(=O)[C@H](C(C)O)NC(=O)[C@H](C(C)C)NC(=O)[C@H](CC3CCCCC3)NC(=O)[C@H](CCN)NC(=O)[C@@H](CC(C)C)NC(=O)[C@H](CCCN)NC(=O)[C@H](Cc3ccc(O)cc3)NC(=O)[C@H](Cc3ccc(-c4ccccc4)cc3)NC(=O)[C@H](C(C)C)NC2=O)c1 (stereo partly drawn) [Compound 3427] ({CH2CO}-[Thr(3ξ)]Y(Carboxymethyl)D[Phe(3-Me)]V[Bip]Y[Orn][dL][Dab][Cha]V[Thr(3ξ)]CN[Aun]-OH; thioether N-14) | 16.8
Cc1cccc(C[C@@H]2NC(=O)[C@H](CC(=O)O)NC(=O)[C@H](Cc3ccc(OCC(=O)O)cc3)NC(=O)[C@H](C(C)O)NC(=O)CSC[C@@H](C(=O)N[C@H](CC(N)=O)C(=O)NCCCCCCCCCCC(=O)O)NC(=O)[C@H](CCC(N)=O)NC(=O)[C@H](C(C)C)NC(=O)[C@H](CC3CCCCC3)NC(=O)[C@H](CCN)NC(=O)[C@@H](CC(C)C)NC(=O)[C@H](CCCN)NC(=O)[C@H](Cc3ccc(O)cc3)NC(=O)[C@H](Cc3ccc(-c4ccccc4)cc3)NC(=O)[C@H](C(C)C)NC2=O)c1 (stereo partly drawn) [Compound 3428] ({CH2CO}-[Thr(3ξ)]Y(Carboxymethyl)D[Phe(3-Me)]V[Bip]Y[Orn][dL][Dab][Cha]VQC[dN][Aun]-OH; thioether N-14) | 9.8
CC(C)C[C@H]1NC(=O)[C@H](CCCN)NC(=O)[C@H](Cc2ccc(O)cc2)NC(=O)[C@H](Cc2ccc(-c3ccccc3)cc2)NC(=O)[C@H](Cc2ccc(O)cc2)NC(=O)[C@H](Cc2c[nH]c3ccccc23)NC(=O)[C@H](CC(=O)O)NC(=O)[C@H](Cc2ccc(OCC(=O)O)cc2)NC(=O)[C@H](C(C)O)NC(=O)CSC[C@@H](C(=O)N[C@H](CC(N)=O)C(=O)NCCCCCCCCCCC(=O)O)NC(=O)[C@H](C(C)O)NC(=O)[C@H](C(C)C)NC(=O)[C@H](CC2CCCCC2)NC(=O)[C@H](CCN)NC1=O (stereo partly drawn) [Compound 3429] ({CH2CO}-[Thr(3ξ)]Y(Carboxymethyl)DWY[Bip]Y[Orn][dL][Dab][Cha]V[Thr(3ξ)]C[dN][Aun]-OH; thioether N-14) | 41.5
